Measurements taken from patent US20240041039A1, “COMPOSITIONS AND METHODS FOR CONTROLLING PLANT PATHOGENS INCLUDING NEMATODES” (Kannar Earth Science, Ltd., priority 2022, published 2024).

System: root knot Meloidogyne sp. nematodes
Assay: Two-minute contact of live root-knot nematodes with water-based solutions in watch glass
Assay type: in vivo
Settings: one drop of water-based solution, fatality recorded within 45 seconds
Description: Live root knot nematodes were collected from soil and kept in shallow water in small glass beakers at room temperature. The individual components and combined formulation were prepared according to the following procedures. Aqueous solutions of individual components were prepared at the concentrations as follows: 400 ppm baicalin (95% purity; Shaanxi Darwin Biotech Co, China), 500 ppm water soluble chitosan (85% purity; Shaanxi Rainwood Biotech Co Ltd, China) and 200 ppm L-glutathione (99% purity; Hunan Insen Biotech Co Ltd, China). Since use of liquid polymer is quite common in seed treatment for better and smoother coating or coverage, each of the individual components and combinations of the components was also prepared as a solution in a cellulose-based carrier (Slurry Buddy 110 from […] Science, Ltd.). Baicalin was dissolved in 1.0 ml of DMSO separately prior to addition to the carrier. Chitosan and glutathione were dissolved in 7.8 ml water prior to addition to the 90.0 ml carrier. In each case, the pH of the solution was adjusted to 5.7. […] This liquid flowable formulation can be used as a ready-to-use (RTU) formulation for seed application. […] One drop of the water-based solutions described above was added to the watch glass with the swimming nematode and the reaction of the nematode was recorded for a period of two-minutes. […]

Row | SMILES | Nematode Reaction
1 | N[C@@H](CCC(=O)N[C@@H](CS)C(=O)NCC(=O)O)C(=O)O [Glutathione, L-glutathione] | Repelling
2 | O=C(O)[C@H]1O[C@@H](Oc2cc3oc(-c4ccccc4)cc(=O)c3c(O)c2O)[C@H](O)[C@@H](O)[C@@H]1O [Baicalin, baicalin] | Repelling
